In ChEMBL document CHEMBL4507319 (2021):

How the values were obtained:
[1] = target: Receptor tyrosine-protein kinase erbB-4 (Homo sapiens) (UniProt Q15303); experiment: ErbB4(h) Eurofins kinase panel; details: Compound concentration 1.0 uM
Homo sapiens = species on record: Homo sapiens; experiment: CK2(h) Eurofins kinase panel; details: Compound concentration 1.0 uM
[2] = target: Protein kinase C beta type (Homo sapiens) (UniProt P05771); experiment: PKCbetaI (h) Eurofins kinase panel; details: Compound concentration 1.0 uM
U2OS = experiment: U2-OS cell line Proliferation assay; assay type: functional, Homo sapiens; details: time 3 day
[3] = target: Protein kinase C delta type (Homo sapiens) (UniProt Q05655); experiment: PKCdelta (h) Eurofins kinase panel; details: Compound concentration 1.0 uM
Protein kinase C delta type (Homo sapiens), sequence (Q05655 whole entry, looked up): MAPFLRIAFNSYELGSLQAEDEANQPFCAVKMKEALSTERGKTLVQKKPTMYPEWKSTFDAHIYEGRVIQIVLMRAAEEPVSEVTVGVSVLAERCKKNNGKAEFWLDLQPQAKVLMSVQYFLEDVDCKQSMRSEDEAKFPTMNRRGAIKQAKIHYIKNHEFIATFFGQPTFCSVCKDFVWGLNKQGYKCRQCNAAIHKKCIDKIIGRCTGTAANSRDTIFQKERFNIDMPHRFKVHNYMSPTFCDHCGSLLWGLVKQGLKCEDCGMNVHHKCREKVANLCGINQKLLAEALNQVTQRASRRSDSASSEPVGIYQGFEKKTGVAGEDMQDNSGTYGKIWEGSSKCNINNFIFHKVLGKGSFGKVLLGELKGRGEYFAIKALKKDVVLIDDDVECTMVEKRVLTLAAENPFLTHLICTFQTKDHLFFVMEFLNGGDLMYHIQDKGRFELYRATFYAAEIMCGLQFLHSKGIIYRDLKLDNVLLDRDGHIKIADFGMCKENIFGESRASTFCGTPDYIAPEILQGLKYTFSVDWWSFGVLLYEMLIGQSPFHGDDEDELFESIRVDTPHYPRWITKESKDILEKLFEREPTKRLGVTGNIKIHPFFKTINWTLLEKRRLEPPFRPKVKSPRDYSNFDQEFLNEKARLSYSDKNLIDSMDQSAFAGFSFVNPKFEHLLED

[4] = target: Tyrosine-protein kinase Lck (Homo sapiens) (UniProt P06239); experiment: Lck(h) Eurofins kinase panel; details: Compound concentration 1.0 uM
[5] = target: T1, cGMP-dependent protein kinase 2 (Homo sapiens) (UniProt Q13237); experiment: PRKG2(h) Eurofins kinase panel; details: Compound concentration 1.0 uM
T1 sequence (whole entry): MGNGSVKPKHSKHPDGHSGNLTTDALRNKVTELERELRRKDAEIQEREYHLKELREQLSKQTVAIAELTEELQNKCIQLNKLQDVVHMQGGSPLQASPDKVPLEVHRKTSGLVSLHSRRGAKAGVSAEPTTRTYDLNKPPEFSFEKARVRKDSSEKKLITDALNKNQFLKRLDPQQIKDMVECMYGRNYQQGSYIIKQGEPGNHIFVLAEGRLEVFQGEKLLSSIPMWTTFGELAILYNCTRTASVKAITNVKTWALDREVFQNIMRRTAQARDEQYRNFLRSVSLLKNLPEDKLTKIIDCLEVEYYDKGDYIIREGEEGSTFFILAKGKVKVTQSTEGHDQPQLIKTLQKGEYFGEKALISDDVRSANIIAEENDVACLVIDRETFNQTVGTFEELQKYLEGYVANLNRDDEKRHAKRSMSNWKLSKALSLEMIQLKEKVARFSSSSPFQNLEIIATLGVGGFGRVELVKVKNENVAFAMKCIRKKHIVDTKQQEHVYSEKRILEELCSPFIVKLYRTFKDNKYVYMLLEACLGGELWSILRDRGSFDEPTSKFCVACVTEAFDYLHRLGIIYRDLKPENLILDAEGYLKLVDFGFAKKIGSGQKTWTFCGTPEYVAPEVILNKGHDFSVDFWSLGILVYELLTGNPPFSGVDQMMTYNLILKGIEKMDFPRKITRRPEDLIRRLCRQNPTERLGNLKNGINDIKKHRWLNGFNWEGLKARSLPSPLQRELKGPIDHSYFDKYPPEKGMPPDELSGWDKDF

[6] = target: Serine/threonine-protein kinase MARK1 (Homo sapiens) (UniProt Q9P0L2); experiment: MARK1(h) Eurofins kinase panel; details: Compound concentration 1.0 uM
[7] = target: Serine/threonine-protein kinase Nek7 (Homo sapiens) (UniProt Q8TDX7); experiment: NEK7(h) Eurofins kinase panel; details: Compound concentration 1.0 uM
Serine/threonine-protein kinase Nek7 (Homo sapiens), sequence (Q8TDX7 whole entry, looked up): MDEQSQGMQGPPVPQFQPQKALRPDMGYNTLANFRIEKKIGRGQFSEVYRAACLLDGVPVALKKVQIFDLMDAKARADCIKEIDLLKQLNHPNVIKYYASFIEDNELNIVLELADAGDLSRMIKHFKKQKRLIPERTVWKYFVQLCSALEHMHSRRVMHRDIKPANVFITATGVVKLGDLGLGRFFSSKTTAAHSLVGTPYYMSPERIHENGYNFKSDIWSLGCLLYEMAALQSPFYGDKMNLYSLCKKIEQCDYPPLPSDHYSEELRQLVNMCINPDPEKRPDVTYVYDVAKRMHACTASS

[8] = target: Homeodomain-interacting protein kinase 3 (Homo sapiens) (UniProt Q9H422); experiment: HIPK3(h) Eurofins kinase panel; details: Compound concentration 1.0 uM
Homeodomain-interacting protein kinase 3 (Homo sapiens), sequence (Q9H422 whole entry, looked up): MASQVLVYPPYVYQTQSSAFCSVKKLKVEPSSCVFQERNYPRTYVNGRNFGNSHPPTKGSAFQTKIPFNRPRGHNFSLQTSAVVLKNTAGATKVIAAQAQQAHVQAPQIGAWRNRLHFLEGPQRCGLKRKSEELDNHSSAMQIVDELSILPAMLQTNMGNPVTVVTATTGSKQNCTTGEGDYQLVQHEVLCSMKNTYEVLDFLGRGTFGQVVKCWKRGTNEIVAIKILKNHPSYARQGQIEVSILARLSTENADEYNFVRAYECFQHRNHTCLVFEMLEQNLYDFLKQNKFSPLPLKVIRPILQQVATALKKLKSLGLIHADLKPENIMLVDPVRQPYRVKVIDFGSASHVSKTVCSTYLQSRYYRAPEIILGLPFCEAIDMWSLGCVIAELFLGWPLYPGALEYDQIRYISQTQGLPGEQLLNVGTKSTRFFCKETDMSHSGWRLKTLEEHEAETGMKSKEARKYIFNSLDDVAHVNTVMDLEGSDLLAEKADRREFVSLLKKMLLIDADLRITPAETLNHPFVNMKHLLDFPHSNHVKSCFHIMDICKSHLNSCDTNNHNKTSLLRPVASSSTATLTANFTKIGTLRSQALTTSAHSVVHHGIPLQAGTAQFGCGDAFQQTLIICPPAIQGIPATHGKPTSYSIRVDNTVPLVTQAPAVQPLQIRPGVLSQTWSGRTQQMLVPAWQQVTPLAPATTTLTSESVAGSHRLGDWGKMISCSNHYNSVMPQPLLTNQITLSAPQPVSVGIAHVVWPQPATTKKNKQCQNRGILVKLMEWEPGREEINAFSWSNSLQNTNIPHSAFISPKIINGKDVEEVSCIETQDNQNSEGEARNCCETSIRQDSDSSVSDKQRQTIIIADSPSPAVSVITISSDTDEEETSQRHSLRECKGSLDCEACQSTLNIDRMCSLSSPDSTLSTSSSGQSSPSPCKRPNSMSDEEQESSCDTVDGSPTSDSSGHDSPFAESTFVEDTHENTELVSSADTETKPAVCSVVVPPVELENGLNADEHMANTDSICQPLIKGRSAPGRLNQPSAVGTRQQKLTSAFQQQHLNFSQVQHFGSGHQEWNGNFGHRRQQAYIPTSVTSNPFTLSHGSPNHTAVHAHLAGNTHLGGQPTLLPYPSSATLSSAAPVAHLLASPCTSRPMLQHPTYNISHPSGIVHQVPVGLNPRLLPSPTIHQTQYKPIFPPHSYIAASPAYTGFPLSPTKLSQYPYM

[9] = target: Insulin receptor-related protein (Homo sapiens) (UniProt P14616); experiment: IRR(h) Eurofins kinase panel; details: Compound concentration 1.0 uM
[10] = target: cAMP-dependent protein kinase catalytic subunit beta (Homo sapiens) (UniProt P22694); experiment: PKAcβ(h) Eurofins kinase panel; details: Compound concentration 1.0 uM
[11] = target: Dual specificity tyrosine-phosphorylation-regulated kinase 1A (Homo sapiens) (UniProt Q13627); experiment: DYRK1A(h) Eurofins kinase panel; details: Compound concentration 1.0 uM
[12] = target: Serine/threonine-protein kinase 25 (Homo sapiens) (UniProt O00506); experiment: STK25(h) Eurofins kinase panel; details: Compound concentration 1.0 uM
Serine/threonine-protein kinase 25 (Homo sapiens), sequence (O00506 whole entry, looked up): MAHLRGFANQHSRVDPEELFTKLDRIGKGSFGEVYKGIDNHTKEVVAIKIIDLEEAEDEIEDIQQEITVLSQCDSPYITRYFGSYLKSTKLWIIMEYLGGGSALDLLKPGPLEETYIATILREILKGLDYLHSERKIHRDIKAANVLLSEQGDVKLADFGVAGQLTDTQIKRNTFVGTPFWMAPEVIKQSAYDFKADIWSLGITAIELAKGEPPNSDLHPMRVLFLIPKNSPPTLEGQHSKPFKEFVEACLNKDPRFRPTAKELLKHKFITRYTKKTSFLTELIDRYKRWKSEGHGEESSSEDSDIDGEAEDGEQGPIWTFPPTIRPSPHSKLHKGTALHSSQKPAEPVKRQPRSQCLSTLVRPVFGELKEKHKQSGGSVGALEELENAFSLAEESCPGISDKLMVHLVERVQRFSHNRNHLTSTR

[13] = target: T2, Mitogen-activated protein kinase kinase kinase 5 (Homo sapiens) (UniProt Q99683); experiment: ASK1(h) Eurofins kinase panel; details: Compound concentration 1.0 uM
T2 sequence (whole entry): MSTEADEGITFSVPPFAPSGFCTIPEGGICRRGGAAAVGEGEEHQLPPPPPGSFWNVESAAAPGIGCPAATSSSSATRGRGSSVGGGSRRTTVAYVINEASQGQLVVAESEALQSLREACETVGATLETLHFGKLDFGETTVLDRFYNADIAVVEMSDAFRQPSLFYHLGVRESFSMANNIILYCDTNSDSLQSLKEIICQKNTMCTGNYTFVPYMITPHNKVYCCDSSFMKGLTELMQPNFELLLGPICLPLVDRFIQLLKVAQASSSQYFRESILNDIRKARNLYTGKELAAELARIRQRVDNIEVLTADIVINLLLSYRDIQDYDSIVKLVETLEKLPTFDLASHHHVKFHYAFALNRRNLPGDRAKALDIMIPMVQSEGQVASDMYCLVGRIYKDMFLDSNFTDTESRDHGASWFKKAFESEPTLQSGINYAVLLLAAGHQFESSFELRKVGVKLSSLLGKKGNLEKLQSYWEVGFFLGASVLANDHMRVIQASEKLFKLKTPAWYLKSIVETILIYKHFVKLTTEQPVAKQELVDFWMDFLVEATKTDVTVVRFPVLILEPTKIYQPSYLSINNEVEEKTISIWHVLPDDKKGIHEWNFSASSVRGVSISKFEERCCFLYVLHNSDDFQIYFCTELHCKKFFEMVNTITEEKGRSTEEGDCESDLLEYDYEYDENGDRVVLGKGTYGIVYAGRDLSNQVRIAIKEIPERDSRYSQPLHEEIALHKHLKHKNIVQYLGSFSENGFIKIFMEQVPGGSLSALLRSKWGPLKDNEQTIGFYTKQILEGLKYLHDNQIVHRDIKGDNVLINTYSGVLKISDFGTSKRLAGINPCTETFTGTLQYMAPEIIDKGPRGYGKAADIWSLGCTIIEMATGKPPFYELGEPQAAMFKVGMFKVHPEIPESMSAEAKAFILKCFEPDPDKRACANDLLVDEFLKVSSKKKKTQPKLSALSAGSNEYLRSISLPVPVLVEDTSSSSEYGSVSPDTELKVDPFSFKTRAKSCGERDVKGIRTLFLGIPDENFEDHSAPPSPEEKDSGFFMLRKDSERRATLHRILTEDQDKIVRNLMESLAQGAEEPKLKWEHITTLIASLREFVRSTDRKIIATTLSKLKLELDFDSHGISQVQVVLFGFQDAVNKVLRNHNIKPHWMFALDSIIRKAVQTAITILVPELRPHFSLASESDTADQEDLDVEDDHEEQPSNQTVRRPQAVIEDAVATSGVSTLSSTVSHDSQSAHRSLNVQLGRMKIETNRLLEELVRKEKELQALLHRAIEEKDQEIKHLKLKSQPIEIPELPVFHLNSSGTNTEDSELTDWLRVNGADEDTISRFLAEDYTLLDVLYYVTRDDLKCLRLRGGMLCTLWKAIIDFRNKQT

[14] = target: Dual specificity tyrosine-phosphorylation-regulated kinase 1B (Homo sapiens) (UniProt Q9Y463); experiment: DYRK1B(h) Eurofins kinase panel; details: Compound concentration 1.0 uM
Dual specificity tyrosine-phosphorylation-regulated kinase 1B (Homo sapiens), sequence (Q9Y463 whole entry, looked up): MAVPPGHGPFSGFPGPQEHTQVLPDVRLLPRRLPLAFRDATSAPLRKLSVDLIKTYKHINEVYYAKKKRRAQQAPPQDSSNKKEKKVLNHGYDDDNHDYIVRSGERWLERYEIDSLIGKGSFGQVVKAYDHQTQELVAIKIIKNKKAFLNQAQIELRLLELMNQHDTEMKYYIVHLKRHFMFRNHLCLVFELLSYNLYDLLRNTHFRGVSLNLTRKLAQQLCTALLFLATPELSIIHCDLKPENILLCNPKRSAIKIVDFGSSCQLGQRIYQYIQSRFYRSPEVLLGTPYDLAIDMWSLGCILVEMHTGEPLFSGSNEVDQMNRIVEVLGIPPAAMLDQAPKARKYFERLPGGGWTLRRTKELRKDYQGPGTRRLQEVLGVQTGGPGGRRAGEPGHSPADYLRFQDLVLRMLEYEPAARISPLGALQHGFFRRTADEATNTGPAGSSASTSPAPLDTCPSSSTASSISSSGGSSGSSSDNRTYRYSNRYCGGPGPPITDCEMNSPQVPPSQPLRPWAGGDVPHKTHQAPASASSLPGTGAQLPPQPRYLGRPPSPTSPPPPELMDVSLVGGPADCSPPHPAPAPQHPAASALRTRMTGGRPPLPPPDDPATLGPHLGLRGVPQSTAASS

[15] = target: Wee1-like protein kinase 2 (Homo sapiens) (UniProt P0C1S8); experiment: Wee1B(h) Eurofins kinase panel; details: Compound concentration 1.0 uM
[16] = target: Ephrin type-A receptor 4 (Homo sapiens) (UniProt P54764); experiment: EphA4(h) Eurofins kinase panel; details: Compound concentration 1.0 uM
Ephrin type-A receptor 4 (Homo sapiens), sequence (P54764 whole entry): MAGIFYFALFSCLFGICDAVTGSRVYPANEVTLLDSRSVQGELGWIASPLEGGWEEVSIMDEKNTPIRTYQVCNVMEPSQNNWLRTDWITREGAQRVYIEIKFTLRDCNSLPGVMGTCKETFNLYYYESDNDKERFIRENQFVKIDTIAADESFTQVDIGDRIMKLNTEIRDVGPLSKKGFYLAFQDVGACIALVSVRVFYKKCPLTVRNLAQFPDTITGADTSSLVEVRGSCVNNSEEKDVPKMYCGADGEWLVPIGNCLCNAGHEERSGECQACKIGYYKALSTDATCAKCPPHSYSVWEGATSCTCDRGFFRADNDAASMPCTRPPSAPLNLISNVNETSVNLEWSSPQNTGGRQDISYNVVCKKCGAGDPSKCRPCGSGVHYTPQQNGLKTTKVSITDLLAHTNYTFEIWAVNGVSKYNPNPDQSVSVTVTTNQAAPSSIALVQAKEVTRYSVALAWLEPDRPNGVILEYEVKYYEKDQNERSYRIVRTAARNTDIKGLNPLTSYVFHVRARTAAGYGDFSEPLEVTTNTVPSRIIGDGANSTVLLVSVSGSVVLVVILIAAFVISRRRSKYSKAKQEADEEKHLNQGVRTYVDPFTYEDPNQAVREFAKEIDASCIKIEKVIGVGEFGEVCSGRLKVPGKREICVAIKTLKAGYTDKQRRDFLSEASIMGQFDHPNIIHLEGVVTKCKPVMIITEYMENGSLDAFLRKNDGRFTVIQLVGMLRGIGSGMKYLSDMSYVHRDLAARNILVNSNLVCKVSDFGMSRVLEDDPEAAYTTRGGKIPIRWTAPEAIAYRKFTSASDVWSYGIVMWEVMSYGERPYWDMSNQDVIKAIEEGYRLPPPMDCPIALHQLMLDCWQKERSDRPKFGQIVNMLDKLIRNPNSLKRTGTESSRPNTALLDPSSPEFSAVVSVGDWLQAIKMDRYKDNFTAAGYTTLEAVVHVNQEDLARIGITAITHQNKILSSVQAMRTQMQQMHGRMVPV

[17] = target: Histamine H3 receptor (Homo sapiens) (UniProt Q9Y5N1); details: Compound concentration 10.0 uM
Histamine H3 receptor (Homo sapiens), sequence (Q9Y5N1 whole entry): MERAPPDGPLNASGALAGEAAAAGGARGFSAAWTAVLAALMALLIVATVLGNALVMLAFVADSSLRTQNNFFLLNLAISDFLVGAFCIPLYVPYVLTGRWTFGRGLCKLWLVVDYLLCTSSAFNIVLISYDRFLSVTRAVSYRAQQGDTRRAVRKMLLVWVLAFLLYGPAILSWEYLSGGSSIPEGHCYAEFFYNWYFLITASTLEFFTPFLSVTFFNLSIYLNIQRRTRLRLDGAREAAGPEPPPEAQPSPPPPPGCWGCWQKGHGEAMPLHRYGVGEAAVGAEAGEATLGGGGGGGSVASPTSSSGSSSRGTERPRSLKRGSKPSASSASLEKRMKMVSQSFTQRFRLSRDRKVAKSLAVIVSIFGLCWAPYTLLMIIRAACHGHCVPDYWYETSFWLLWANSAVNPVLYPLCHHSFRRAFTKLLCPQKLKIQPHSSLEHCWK

Row | Structure (SMILES) | % residual kinase activity [1] | % residual kinase activity (Homo sapiens) | % residual kinase activity [2] | Cell Proliferation IC50 (U2OS) | % residual kinase activity [3] | % residual kinase activity [4] | % residual kinase activity [5] | % residual kinase activity [6] | % residual kinase activity [7] | % residual kinase activity [8] | % residual kinase activity [9] | % residual kinase activity [10] | % residual kinase activity [11] | % residual kinase activity [12] | % residual kinase activity [13] | % residual kinase activity [14] | % residual kinase activity [15] | % residual kinase activity [16] | inhibition [17]
1 | CCc1ccccc1C(=O)Nc1n[nH]c2c(C)c(F)c(C3C(C#N)=C(C)N(C)C(C)=C3C#N)cc12 [BAY-3827] | 101% | 94% | 55% | 18.7 µM | 69% | 93% | 79% | 66% | 112% | 100% | 101% | 90% | 107% | 43% | 99% | 99% | 101% | 106% | 
2 | CC1=C(C#N)C(c2ccc3c(c2)c(NC(=O)c2ccccc2C)nn3C)C(C#N)=C(C)N1 [BAY-974] |  |  |  |  |  |  |  |  |  |  |  |  |  |  |  |  |  |  | 1.89%
